Reference: patent publication US10562850B2, “Human plasma kallikrein inhibitors” (priority 2015, dated 2020)

Biological target: human plasma kallikrein (Homo sapiens (Human), UniProt P03952)
Assay: Plasma Kallikrein Activity Assay (chromogenic substrate S2302)
Type: biochemical
Conditions: 2 nM kallikrein, 80 μM S2302, 30° C., pH 7.8; Cheng-Prusoff
Description: Plasma Kallikrein Activity Assay.
The effect of compounds of the invention on human plasma kallikrein activity was determined using the chromogenic substrates (DiaPharma Group, Inc., West Chester, Ohio, USA). In these experiments, 2 nM kallikrein (Enzyme Research Laboratories, South Bend, Ind., USA) was incubated with 80 μM S2302 (H-D-Pro-Phe-Arg-p-nitroaniline) in the absence or presence of increasing concentrations of compounds of the invention in a final volume of 200 μL Tris-HCl buffer (200 mM NaCl; 2.5 mM CaCl2; 50 mM Tris-HCl, pH 7.8).
After incubation at 30° C., the activity of kallikrein was measured as a change in absorbance at OD 405 nm using BioTek PowerWave X340 Microplate Reader (Winooski, Vt., USA). Data were analyzed using SigmaPlot software (Systat Software, Inc., San Jose, Calif., USA) (Four Parameter Logistic Curve). Ki values for the inhibitors were determined using the Cheng-Prusoff equation (Biochem. Pharmacol. 1973, 22, 3099).

Chain of human plasma kallikrein (P03952 391-638): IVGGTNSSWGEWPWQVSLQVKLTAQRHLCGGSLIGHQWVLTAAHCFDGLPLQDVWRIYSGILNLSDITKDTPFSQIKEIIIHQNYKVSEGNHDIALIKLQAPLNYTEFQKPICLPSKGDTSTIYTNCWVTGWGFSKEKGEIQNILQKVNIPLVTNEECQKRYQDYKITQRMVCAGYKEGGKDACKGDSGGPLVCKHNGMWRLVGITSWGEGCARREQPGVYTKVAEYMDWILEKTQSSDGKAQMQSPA
Chain of human plasma kallikrein (P03952 20-390 partner): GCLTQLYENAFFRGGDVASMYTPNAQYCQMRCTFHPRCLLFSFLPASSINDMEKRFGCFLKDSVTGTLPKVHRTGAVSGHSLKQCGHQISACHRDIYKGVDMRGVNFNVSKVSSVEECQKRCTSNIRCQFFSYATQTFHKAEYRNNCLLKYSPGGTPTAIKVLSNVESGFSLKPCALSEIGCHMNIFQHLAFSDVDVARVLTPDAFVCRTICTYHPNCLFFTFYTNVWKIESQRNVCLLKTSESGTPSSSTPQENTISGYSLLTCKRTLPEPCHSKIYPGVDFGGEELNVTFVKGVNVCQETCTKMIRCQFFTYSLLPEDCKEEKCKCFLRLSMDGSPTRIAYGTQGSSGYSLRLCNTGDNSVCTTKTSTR

Row | SMILES | Ki
1 | O=C(Nc1cc(C(NCC2CC2)c2ccccc2)ccc1F)[C@H]1C[C@@H](O)CN1C(=O)Nc1ccc(Cl)cc1 (stereo partly drawn) [Compound 1p, (2R,4R)-N1-(4-chlorophenyl)-N2-(5-(((cyclopropylmethyl)amino)(phenyl)methyl)-2-fluorophenyl)-4-hydroxypyrrolidine-1,2-dicarboxamide] | > 0.1 µM
2 | O=C(Nc1ccccc1F)[C@H]1C[C@@H](O)CN1C(=O)Nc1ccc(Cl)cc1 [Compound 2a, (2R,4R)-N1-(4-chlorophenyl)-N2-(2-fluorophenyl)-4-hydroxypyrrolidine-1,2-dicarboxamide] | > 0.1 µM
3 | O=C(Nc1cc(C(NCC2CC2)c2ccccc2)ccc1F)[C@H]1C[C@@H](O)CN1C(=O)Nc1ccc(Cl)cc1 (stereo partly drawn) [Compound 3a, (2R,4R)-N1-(4-chlorophenyl)-N2-(5-((+)-(cyclopropylmethylamino)(phenyl)methyl)-2-fluorophenyl)-4-hydroxypyrrolidine-1,2-dicarboxamide] | 0.05 to 0.1 µM
4 | CC(C)(C)[S@@+]([O-])NC(CCC1CC1)(c1cccc(C#N)c1)c1ccc(F)c(NC(=O)[C@H]2C[C@@H](O)CN2C(=O)Nc2ccc(Cl)cc2)c1 (stereo partly drawn) [Compound 4f, (2R,4R)-N1-(4-chlorophenyl)-N2-(5-((−)-1-(3-cyanophenyl)-3-cyclopropyl-1-((R)-1,1-dimethylethylsulfinamido)propyl)-2-fluorophenyl)-4-hydroxypyrrolidine-1,2-dicarboxamide] | 0.05 to 0.1 µM
5 | N#Cc1cccc(C(N)(CCC2CC2)c2ccc(F)c(NC(=O)[C@H]3C[C@@H](O)CN3C(=O)Nc3ccc(Cl)cc3)c2)c1 (stereo partly drawn) [Compound 4g, (2R,4R)-N2-(5-((+)-1-amino-1-(3-cyanophenyl)-3-cyclopropylpropyl)-2-fluorophenyl)-N1-(4-chlorophenyl)-4-hydroxypyrrolidine-1,2-dicarboxamide] | 0.05 to 0.1 µM
6 | CC(C)(C)[S@@+]([O-])NC(CCC1CC1)(c1cccc(C#N)c1)c1ccc(F)c(NC(=O)[C@@H]2C[C@@H](O)CN2C(=O)Nc2ccc(Cl)cc2)c1 (stereo partly drawn) [Compound 5d, (2S,4R)-N1-(4-chlorophenyl)-N2-(5-((−)-1-(3-cyanophenyl)-3-cyclopropyl-1-((R)-1,1-dimethylethylsulfinamido)propyl)-2-fluorophenyl)-4-hydroxypyrrolidine-1,2-dicarboxamide] | > 0.1 µM
7 | N#Cc1cccc(C(N)(CCC2CC2)c2ccc(F)c(NC(=O)[C@@H]3C[C@@H](O)CN3C(=O)Nc3ccc(Cl)cc3)c2)c1 (stereo partly drawn) [Compound 5e, (2S,4R)-N2-(5-((−)-1-amino-1-(3-cyanophenyl)-3-cyclopropylpropyl)-2-fluorophenyl)-N1-(4-chlorophenyl)-4-hydroxypyrrolidine-1,2-dicarboxamide] | > 0.1 µM
8 | CO[C@@H]1C[C@H](C(=O)Nc2cc(C(CCC3CC3)(N[S@+]([O-])C(C)(C)C)c3cccc(C#N)c3)ccc2F)N(C(=O)N(C)c2ccc(Cl)cc2)C1 (stereo partly drawn) [Compound 6c, (2R,4R)-N1-(4-chlorophenyl)-N2-(5-((−)-1-(3-cyanophenyl)-3-cyclopropyl-1-((R)-1,1-dimethylethylsulfinamido)propyl)-2-fluorophenyl)-4-methoxy-N1-methylpyrrolidine-1,2-dicarboxamide] | > 0.1 µM
9 | CO[C@@H]1C[C@@H](C(=O)Nc2cc(C(CCC3CC3)(N[S@+]([O-])C(C)(C)C)c3cccc(C#N)c3)ccc2F)N(C(=O)N(C)c2ccc(Cl)cc2)C1 (stereo partly drawn) [Compound 6d, (2S,4R)-N1-(4-chlorophenyl)-N2-(5-(1-(3-cyanophenyl)-3-cyclopropyl-1-((R)-1,1-dimethylethylsulfinamido)propyl)-2-fluorophenyl)-4-methoxy-N1-methylpyrrolidine-1,2-dicarboxamide] | > 0.1 µM
10 | CO[C@@H]1C[C@H](C(=O)Nc2cc(C(N)(CCC3CC3)c3cccc(C#N)c3)ccc2F)N(C(=O)N(C)c2ccc(Cl)cc2)C1 (stereo partly drawn) [Compound 6e, (2R,4R)-N2-(5-((−)-1-amino-1-(3-cyanophenyl)-3-cyclopropylpropyl)-2-fluorophenyl)-N1-(4-chlorophenyl)-4-methoxy-N1-methylpyrrolidine-1,2-dicarboxamide] | > 0.1 µM
11 | CO[C@@H]1C[C@@H](C(=O)Nc2cc(C(N)(CCC3CC3)c3cccc(C#N)c3)ccc2F)N(C(=O)N(C)c2ccc(Cl)cc2)C1 (stereo partly drawn) [Compound 6f, (2S,4R)-N2-(5-((+)-1-amino-1-(3-cyanophenyl)-3-cyclopropylpropyl)-2-fluorophenyl)-N1-(4-chlorophenyl)-4-methoxy-N1-methylpyrrolidine-1,2-dicarboxamide] | > 0.1 µM
12 | CC(C)(C)[S@@+]([O-])NC(CCC1CC1)(c1cccc(C#N)c1)c1ccc(F)c(NC(=O)[C@H]2CCCN2C(=O)Nc2ccc(Cl)cc2)c1 (stereo partly drawn) [Compound 7b, (R)-N1-(4-chlorophenyl)-N2-(5-((+)-1-(3-cyanophenyl)-3-cyclopropyl-1-((R)-1,1-dimethylethylsulfinamido)propyl)-2-fluorophenyl)pyrrolidine-1,2-dicarboxamide] | > 0.1 µM
13 | N#Cc1cccc(C(N)(CCC2CC2)c2ccc(F)c(NC(=O)[C@H]3CCCN3C(=O)Nc3ccc(Cl)cc3)c2)c1 (stereo partly drawn) [Compound 7c, (R)-N2-(5-((+)-1-amino-1-(3-cyanophenyl)-3-cyclopropylpropyl)-2-fluorophenyl)-N1-(4-chlorophenyl)pyrrolidine-1,2-dicarboxamide] | > 0.1 µM
14 | CC(C)(C)[S@@+]([O-])NC(CCC1CC1)(c1cccc(C#N)c1)c1ccc(F)c(NC(=O)[C@@H]2CCCN2C(=O)Nc2ccc(Cl)cc2)c1 (stereo partly drawn) [Compound 8b, (S)-N1-(4-chlorophenyl)-N2-(5-((−)-1-(3-cyanophenyl)-3-cyclopropyl-1-((R)-1,1-dimethylethylsulfinamido)propyl)-2-fluorophenyl)pyrrolidine-1,2-dicarboxamide] | > 0.1 µM
15 | N#Cc1cccc(C(N)(CCC2CC2)c2ccc(F)c(NC(=O)[C@@H]3CCCN3C(=O)Nc3ccc(Cl)cc3)c2)c1 (stereo partly drawn) [Compound 8c, (S)-N2-(5-((−)-1-amino-1-(3-cyanophenyl)-3-cyclopropylpropyl)-2-fluorophenyl)-N1-(4-chlorophenyl)pyrrolidine-1,2-dicarboxamide] | > 0.1 µM
16 | CC(C)(C)[S@@+]([O-])NC(CCC1CC1)(c1cccc(C#N)c1)c1ccc(F)c(NC(=O)[C@H]2C[C@H](O)CN2C(=O)Nc2ccc(Cl)cc2)c1 (stereo partly drawn) [Compound 9b, (2R,4S)-N1-(4-chlorophenyl)-N2-(5-((+)-1-(3-cyanophenyl)-3-cyclopropyl-1-((R)-1,1-dimethylethylsulfinamido)propyl)-2-fluorophenyl)-4-hydroxypyrrolidine-1,2-dicarboxamide] | > 0.1 µM
17 | N#Cc1cccc(C(N)(CCC2CC2)c2ccc(F)c(NC(=O)[C@H]3C[C@H](O)CN3C(=O)Nc3ccc(Cl)cc3)c2)c1 (stereo partly drawn) [Compound 9c, (2R,4S)-N2-(5-((+)-1-amino-1-(3-cyanophenyl)-3-cyclopropylpropyl)-2-fluorophenyl)-N1-(4-chlorophenyl)-4-hydroxypyrrolidine-1,2-dicarboxamide] | > 0.1 µM
18 | CC(C)(C)[S@@+]([O-])NC(CCC1CC1)(c1cccc(C#N)c1)c1ccc(F)c(NC(=O)[C@@H]2C[C@H](O)CN2C(=O)Nc2ccc(Cl)cc2)c1 (stereo partly drawn) [Compound 10b, (2S,4S)-N1-(4-chlorophenyl)-N2-(5-((−)-1-(3-cyanophenyl)-3-cyclopropyl-1-((R)-1,1-dimethylethylsulfinamido)propyl)-2-fluorophenyl)-4-hydroxypyrrolidine-1,2-dicarboxamide] | > 0.1 µM
19 | N#Cc1cccc(C(N)(CCC2CC2)c2ccc(F)c(NC(=O)[C@@H]3C[C@H](O)CN3C(=O)Nc3ccc(Cl)cc3)c2)c1 (stereo partly drawn) [Compound 10c, (2S,4S)-N2-(5-((−)-1-amino-1-(3-cyanophenyl)-3-cyclopropylpropyl)-2-fluorophenyl)-N1-(4-chlorophenyl)-4-hydroxypyrrolidine-1,2-dicarboxamide] | > 0.1 µM
20 | CO[C@H]1C[C@@H](C(=O)Nc2cc(C(CCC3CC3)(N[S@+]([O-])C(C)(C)C)c3cccc(C#N)c3)ccc2F)N(C(=O)Nc2ccc(Cl)cc2)C1 (stereo partly drawn) [Compound 11d, (2S,4S)-N1-(4-chlorophenyl)-N2-(5-(1-(3-cyanophenyl)-3-cyclopropyl-1-((R)-1,1-dimethylethylsulfinamido)propyl)-2-fluorophenyl)-4-methoxypyrrolidine-1,2-dicarboxamide] | > 0.1 µM
21 | CO[C@H]1C[C@@H](C(=O)Nc2cc(C(N)(CCC3CC3)c3cccc(C#N)c3)ccc2F)N(C(=O)Nc2ccc(Cl)cc2)C1 (stereo partly drawn) [Compound 11e, (2S,4S)-N2-(5-((−)-1-amino-1-(3-cyanophenyl)-3-cyclopropylpropyl)-2-fluorophenyl)-N1-(4-chlorophenyl)-4-methoxypyrrolidine-1,2-dicarboxamide] | > 0.1 µM
22 | CC(C)(C)[S@@+]([O-])NC(CCC1CC1)(c1cccc(C#N)c1)c1ccc(F)c(NC(=O)[C@H]2CCCN2C(=O)OCc2ccccc2)c1 (stereo partly drawn) [Compound 12b, (R)-benzyl 2-(5-((−)-1-(3-cyanophenyl)-3-cyclopropyl-1-((R)-1,1-dimethylethylsulfinamido)propyl)-2-fluorophenylcarbamoyl)pyrrolidine-1-carboxylate] | > 0.1 µM
23 | N#Cc1cccc(C(N)(CCC2CC2)c2ccc(F)c(NC(=O)[C@H]3CCCN3C(=O)Nc3ccc(Cl)cn3)c2)c1 (stereo partly drawn) [Compound 13e, (R)-N2-(5-((+)-1-amino-1-(3-cyanophenyl)-3-cyclopropylpropyl)-2-fluorophenyl)-N1-(5-chloropyridin-2-yl)pyrrolidine-1,2-dicarboxamide] | > 0.1 µM
